From ChEMBL document CHEMBL5608173, “Discovery of novel natural-product-derived mutant isocitrate dehydrogenases 1 inhibitors: Structure-based virtual screening, biological evaluation and structure-activity relationship study” (Eur J Med Chem, 2024)
Calls of active or inactive are those of the source. No cut-off for these calls is given here.

How the values were obtained:
HT-1080 [1] = experiment: Antiproliferative activity against human HT-1080 cells harboring IDH1 R132C mutant assessed as reduction in cell viability at 10 uM incubated for 72 hrs by MTT assay; type: functional, cell-based
HT-1080 [2] = experiment: Cell cycle arrest in human HT-1080 cells assessed as G1 phase cells at 2 uM incubated for 24 hrs by PI staining based flow cytometric analysis (reference value: 58.1 %); type: functional
[3] = Oral bioavailability in Sprague-Dawley rat at 5 mg/kg measured after 24 hrs by LC-MS/MS analysis; type: ADME, organism-based; conditions: in vivo
[4] = Half-life in Sprague-Dawley rat at 5 mg/kg, po measured after 24 hrs by LC-MS/MS analysis; type: ADME, organism-based; conditions: in vivo
L02 = experiment: Cytotoxicity against human L02 cells assessed as reduction in cell viability at 0.5 to 2 uM; type: toxicity, cell-based; conditions: l02, 2 µM, dose 0.5-2 µM
HT-1080 [5] = experiment: Cell cycle arrest in human HT-1080 cells assessed as G2 phase cells at 10 uM incubated for 24 hrs by PI staining based flow cytometric analysis (reference value: 23.6 %); type: functional
[6] = target: T1, Isocitrate dehydrogenase [NADP] cytoplasmic (Homo sapiens, UniProt O75874, R132C); experiment: Inhibition of recombinant human IDH1 R132C mutant extracted from Escherichia coli BL21 (DE3) cells using alpha-ketoglutarate as substrate incubated for 60 mins in presence of NADPH by absorbance based assay
[7] = target: T1, Isocitrate dehydrogenase [NADP] cytoplasmic; experiment: Inhibition of IDH1 R132C mutant in human HT-1080 cells assessed as reduction in 2-HG level incubated for 48 hrs in presence of NAD+ by resazurin fluorescence dye based Sigma MAK320-1 assay kit analysis; type: cell-based
[8] = Toxicity in Sprague-Dawley rat assessed as observable clinical signs at 0.5 mg/kg, iv measured after 24 hrs; type: organism-based; conditions: in vivo
HT-1080 [9] = experiment: Induction of apoptosis in human HT-1080 cells assessed as early apoptotic cells at 4 uM incubated for 48 hrs by Annexin V-FITC/PI staining based flow cytometric analysis (reference value: 2.33 %); type: functional
HT-1080 [10] = experiment: Induction of apoptosis in human HT-1080 cells assessed as necrotic cells at 6 uM incubated for 12 hrs by Annexin V-FITC/PI staining based flow cytometric analysis (reference value: 0.38 %); type: functional
HT-1080 [11] = experiment: Cell cycle arrest in human HT-1080 cells assessed as G2 phase cells at 4 uM incubated for 24 hrs by PI staining based flow cytometric analysis (reference value: 23.6 %); type: functional
HT-1080 [12] = experiment: Induction of apoptosis in human HT-1080 cells assessed as late apoptotic cells at 8 uM incubated for 48 hrs by Annexin V-FITC/PI staining based flow cytometric analysis (reference value: 1.15 %); type: functional
[13] = Clearance in Sprague-Dawley rat at 5 mg/kg, po measured after 24 hrs by LC-MS/MS analysis; type: ADME, organism-based; conditions: in vivo
[14] = system: Isocitrate dehydrogenase [NADP] cytoplasmic (Homo sapiens), O75874 [R132C]; experiment: Inhibition of recombinant human IDH1 R132C mutant extracted from Escherichia coli BL21 (DE3) cells using alpha-ketoglutarate as substrate at 2 uM incubated for 60 mins in presence of NADPH by absorbance based assay relative to control
[15] = system: Isocitrate dehydrogenase [NADP] cytoplasmic (Homo sapiens), O75874 [R132H]; experiment: Inhibition of recombinant human IDH1 R132H mutant extracted from Escherichia coli BL21 (DE3) cells using alpha-ketoglutarate as substrate at 0.2 uM incubated for 60 mins in presence of NADPH by absorbance based assay relative to control
HT-1080 [16] = experiment: Induction of apoptosis in human HT-1080 cells assessed as necrotic cells at 6 uM incubated for 48 hrs by Annexin V-FITC/PI staining based flow cytometric analysis (reference value: 0.38 %); type: functional
[17] = AUC (0 to t) in Sprague-Dawley rat at 0.5 mg/kg, iv measured after 24 hrs by LC-MS/MS analysis; type: ADME, organism-based; conditions: in vivo
HT-1080 [18] = experiment: Induction of apoptosis in human HT-1080 cells assessed as late apoptotic cells at 2 uM incubated for 48 hrs by Annexin V-FITC/PI staining based flow cytometric analysis (reference value: 1.15 %); type: functional
[19] = target: T2, Isocitrate dehydrogenase [NADP] cytoplasmic (Homo sapiens, UniProt O75874, R132H); experiment: Inhibition of IDH1 R132H mutant in human U-87 MG cells assessed as reduction in 2-HG level incubated for 48 hrs in presence of NAD+ by resazurin fluorescence dye based Sigma MAK320-1 assay kit analysis; type: cell-based
U-87 MG [20] = experiment: Antiproliferative activity against human U-87 MG cells harboring IDH1 R132H mutant assessed as reduction in cell viability incubated for 72 hrs by MTT assay; type: functional, U-87MG ATCC
U-87 MG [21] = experiment: Antiproliferative activity against human U-87 MG cells assessed as reduction in cell viability incubated for 72 hrs by MTT assay; type: functional, U-87MG ATCC
[22] = In vivo inhibition of IDH1 mutant in female nude mouse xenografted with human HT-1080 cells assessed as reduction in 2-HG levels in tumor at 40 mg/kg, ip administered twice at 1 hrs interval by resazurin fluorescence dye based Sigma MAK320-1 assay kit analysis relative to control; type: functional
HT-1080 [23] = experiment: Induction of apoptosis in human HT-1080 cells assessed as viable cells at 6 uM incubated for 12 hrs by Annexin V-FITC/PI staining based flow cytometric analysis (reference value: 96.65 %); type: functional; conditions: read-out: Activity
HT-1080 [24] = experiment: Induction of apoptosis in human HT-1080 cells assessed as late apoptotic cells at 6 uM incubated for 48 hrs by Annexin V-FITC/PI staining based flow cytometric analysis (reference value: 0.60 %); type: functional
[25] = target: T2, Isocitrate dehydrogenase [NADP] cytoplasmic; experiment: Inhibition of recombinant human IDH1 R132H mutant extracted from Escherichia coli BL21 (DE3) cells using alpha-ketoglutarate as substrate incubated for 60 mins in presence of NADPH by absorbance based assay
[26] = Half-life in Sprague-Dawley rat at 0.5 mg/kg, iv measured after 24 hrs by LC-MS/MS analysis; type: ADME, organism-based; conditions: in vivo
BEAS-2B = experiment: Cytotoxicity against human BEAS-2B cells assessed as reduction in cell viability at 0.5 to 2 uM; type: toxicity, cell-based; conditions: dose 0.5-2 µM
HT-1080 [27] = experiment: Cell cycle arrest in human HT-1080 cells assessed as G2 phase cells at 8 uM incubated for 24 hrs by PI staining based flow cytometric analysis (reference value: 23.6 %); type: functional
HT-1080 [28] = experiment: Cell cycle arrest in human HT-1080 cells assessed as S phase cells at 8 uM incubated for 24 hrs by PI staining based flow cytometric analysis (reference value: 18.3 %); type: functional
HT-1080 [29] = experiment: Cell cycle arrest in human HT-1080 cells assessed as S phase cells at 2 uM incubated for 24 hrs by PI staining based flow cytometric analysis (reference value: 18.3 %); type: functional
HT-1080 [30] = experiment: Cell cycle arrest in human HT-1080 cells assessed as G1 phase cells at 8 uM incubated for 24 hrs by PI staining based flow cytometric analysis (reference value: 58.1 %); type: functional
HT-1080 [31] = experiment: Cell cycle arrest in human HT-1080 cells assessed as G1 phase cells at 10 uM incubated for 24 hrs by PI staining based flow cytometric analysis (reference value: 58.1 %); type: functional
HT-1080 [32] = experiment: Cell cycle arrest in human HT-1080 cells assessed as G2 phase cells at 2 uM incubated for 24 hrs by PI staining based flow cytometric analysis (reference value: 23.6 %); type: functional

T1 sequence (O75874 2-414 R132C limits assumed): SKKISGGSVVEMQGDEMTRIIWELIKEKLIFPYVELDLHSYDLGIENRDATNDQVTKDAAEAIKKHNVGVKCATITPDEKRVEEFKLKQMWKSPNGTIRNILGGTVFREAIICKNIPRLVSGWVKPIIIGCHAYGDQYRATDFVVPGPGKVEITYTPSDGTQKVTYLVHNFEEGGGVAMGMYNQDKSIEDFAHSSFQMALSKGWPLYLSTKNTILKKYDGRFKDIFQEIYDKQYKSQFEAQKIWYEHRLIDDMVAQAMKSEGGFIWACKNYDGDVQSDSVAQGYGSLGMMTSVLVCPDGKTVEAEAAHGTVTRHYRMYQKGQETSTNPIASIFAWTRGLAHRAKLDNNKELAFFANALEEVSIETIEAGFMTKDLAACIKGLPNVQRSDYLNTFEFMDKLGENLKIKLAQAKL
T2 sequence (O75874 2-414 R132H limits assumed): as the sequence (O75874 2-414 R132C limits assumed) above, with C131H counted along it
Sequence of Isocitrate dehydrogenase [NADP] cytoplasmic (Homo sapiens), O75874 [R132C] (O75874 whole entry R132C): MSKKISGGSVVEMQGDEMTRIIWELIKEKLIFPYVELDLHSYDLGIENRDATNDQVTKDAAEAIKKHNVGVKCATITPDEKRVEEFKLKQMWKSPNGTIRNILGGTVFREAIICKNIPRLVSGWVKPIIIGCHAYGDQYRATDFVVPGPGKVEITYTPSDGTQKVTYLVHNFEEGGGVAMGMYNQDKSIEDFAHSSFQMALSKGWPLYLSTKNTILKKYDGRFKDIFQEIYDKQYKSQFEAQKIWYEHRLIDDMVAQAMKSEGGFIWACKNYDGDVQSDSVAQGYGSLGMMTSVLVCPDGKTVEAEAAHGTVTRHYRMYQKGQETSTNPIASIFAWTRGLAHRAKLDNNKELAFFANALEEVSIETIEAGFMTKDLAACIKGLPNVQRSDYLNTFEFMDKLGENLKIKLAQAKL
Sequence of Isocitrate dehydrogenase [NADP] cytoplasmic (Homo sapiens), O75874 [R132H] (O75874 whole entry R132H): as the sequence (O75874 whole entry R132C) above, with C132H counted along it

bioavailability [3]: 16.8%
half-life [4]: 2.13 h
IC50 [6]: 95.7 nM
EC50 [7]: 84 nM
CL/F [13]: 168 mL/min/kg
inhibition [14]: > 100%
inhibition [15]: 75.4%
AUC(0-t) at 24 h [17]: 236 ng·h/mL
EC50 [19]: 182 nM
IC50 [25]: 124 nM
half-life [26]: 1.46 h
Structure (SMILES): COc1cc(O)c(-c2cc(-c3ccc(O)cc3)nc(N3CCNCC3)n2)cc1CC=C(C)C
Activity (HT-1080 [1]): Active
Activity (HT-1080 [2]): 55.7%
Activity (L02): Non-Toxic
Activity (HT-1080 [5]): 3%
Activity [8]: Non-Toxic
Activity (HT-1080 [9]): 4.48%
Activity (HT-1080 [10]): 4.99%
Activity (HT-1080 [11]): 21%
Activity (HT-1080 [12]): 17.93%
Activity (HT-1080 [16]): 1.35%
Activity (HT-1080 [18]): 4.96%
GC50 (U-87 MG [20]): 3480 nM
GC50 (U-87 MG [21]): 6910 nM
inhibition in vivo at 40 mg/kg [22]: 96%
viability at 6 µM (HT-1080 [23]): 91.5%
Activity (HT-1080 [24]): 6.57%
Activity (BEAS-2B): Non-Toxic
Activity (HT-1080 [27]): 15.9%
Activity (HT-1080 [28]): 32.3%
Activity (HT-1080 [29]): 22.4%
Activity (HT-1080 [30]): 51.8%
Activity (HT-1080 [31]): 45.4%
Activity (HT-1080 [32]): 21.9%
